One experiment addresses TrkC (Homo sapiens, UniProt Q16288). The settings on record: cited from earlier work.
Experiment [1] has as its system prenatally cocaine-exposed mice. In words: Odor versus odor discrimination (two-odor discrimination testing). The class given is in vivo, mouse (Swiss Webster). Conditions: ANA-12 i.p. twice a day, 1 mg/kg/day; data not shown. As for the experimental part:
(§1) Olfactometry: Reversal learning was assayed in an automated olfactometer based on odor learning and detection using water as reward (41, 42). Briefly, odorants were presented via an 8-channel liquid dilution computerized olfactometer (Knosys LD8-1, Tampa, Fla.) so that odorant threshold determinations were automated and stimulus concentration, timing of onset and offset, and stimulus control of behavior could be controlled reliably. We modified our Knosys system to provide additional mechanical dampening of the solenoid pinch valves to permit incorporation of materials for mounting the machine in-line with sterilization of the olfactometer.
During the go no-go operant training mice inserted their snout into the odor sampling port to initiate a trial and waited until the odor stimulus was presented. […] The mice were rewarded for lick decisions paired with a positively entrained odor (S+) and also for correct rejections paired with a negatively entrained odor (S−). This establishes the “go no-go” reward criteria. The percentage of correct responses per trial was determined by the formula: % correct responses=[(HITs+Correct Rejections)/20]×100, where a HIT is defined as a criterion response in the presence of S+, and a Correct Rejection (CR) is a failure to make a criterion response in the presence of […] 20 represents the number of trials per block. […]

The next experiment addresses TrkA (Homo sapiens, UniProt P04629). Conditions: cited from earlier work.
Experiment [2] concerns prenatally cocaine-exposed mice. In words: Olfactory (odor) reversal learning, go no-go olfactometer paradigm. The class given is in vivo, mouse (Swiss Webster). As for the experimental part: Swiss Webster mice were housed in a temperature and humidity controlled environment on a 12 hr light/dark cycle with food and water available ad libitum were bred to obtain timed pregnancies.
Singly housed dams received twice daily (7 AM and 7 PM) subcutaneous injections of cocaine (20 mg/kg/injection: total daily dose=40 mg/kg/day) or saline (same volume and time of administration as the cocaine injection) from the 8th day of pregnancy until the day of birth. The period of cocaine exposure corresponds to mid-first trimester of human pregnancies.
as §1
The Knosys olfactometer employs operant conditioning in the form of both positive and negative reinforcements. Positive reinforcement is used when pairing an odorant with water reward (S+). A 10-second time out or negative reinforcement occurs as a result of a mouse responding to a negative cue or diluent (S−). Mice were therefore trained in a classical “go no-go” operant conditioning paradigm to recognize an odorant.
Operant training: Mice were water-deprived to 85% of their baseline bodyweight to motivate them for a water reward. Operant training was performed using a step-wise battery of tasks that began with reward reinforcement for learning to lick a water delivery tube and snout insertion into the odor sampling port. Mice advanced to the next stage after 30 reinforcements. Next, mice were reinforced for lick decisions paired with a positively entrained odor (S+). They were required to nose poke for an extended period of time to sample an odor prior to receiving water reinforcement.
During the go no-go operant training mice inserted their snout into the odor sampling port to initiate a trial and waited until the odor stimulus was presented. […] The mice were rewarded for lick decisions paired with a positively entrained odor (S+) and also for correct rejections paired with a negatively entrained odor (S−). This establishes the “go no-go” reward criteria. The percentage of correct responses per trial was determined by the formula: % correct responses=[(HITs+Correct Rejections)/20]×100, where a HIT is defined as a criterion response in the presence of S+, and a Correct Rejection (CR) is a failure to make a criterion response in the presence of […] 20 represents the number of trials per block.
Odor Reversal Learning: Once mice achieved criteria performance on the two-odor discrimination testing for a week, mice underwent an odor-reversal learning paradigm. Here mice were introduced to the switch (reversal) of the S+ for the S− stimulus where the previously rewarded odor stimulus now lacked the water reward and the previously unrewarded odor stimulus was now paired with the water reward.
The scent stimuli used were 5% Ethyl Acetate (EA) and 1% Acetophenone (AP).
Upon successful completion of the training phase and odor discrimination phase a subset of mice were randomly assigned to the ANA-12 injection group. ANA-12 (Sigma Aldrich, St. Louis, Mo.; SML0209) was administered twice daily [0.5 mg/kg; 1.0 mg/kg/day intraperitoneal (i.p.)] for 13 consecutive days. ANA-12 was dissolved in 100% DMSO (stock), and diluted further such that the final concentration of DMSO administered to the mice was 1%. On days 8-10 of the injection period, the mice were water deprived (to 85% of pre-deprivation weight). […]

The test system of the next experiment is mice. The settings on record: mice dosed with ANA-12; Cazorla et al., J. Clin. Invest. 121(5), 1846-57 (2011); cited from earlier work.

Entries after “also recorded” stand apart in the source; their conditions may differ.

TrkA, sequence (P04629 33-796, species assumed): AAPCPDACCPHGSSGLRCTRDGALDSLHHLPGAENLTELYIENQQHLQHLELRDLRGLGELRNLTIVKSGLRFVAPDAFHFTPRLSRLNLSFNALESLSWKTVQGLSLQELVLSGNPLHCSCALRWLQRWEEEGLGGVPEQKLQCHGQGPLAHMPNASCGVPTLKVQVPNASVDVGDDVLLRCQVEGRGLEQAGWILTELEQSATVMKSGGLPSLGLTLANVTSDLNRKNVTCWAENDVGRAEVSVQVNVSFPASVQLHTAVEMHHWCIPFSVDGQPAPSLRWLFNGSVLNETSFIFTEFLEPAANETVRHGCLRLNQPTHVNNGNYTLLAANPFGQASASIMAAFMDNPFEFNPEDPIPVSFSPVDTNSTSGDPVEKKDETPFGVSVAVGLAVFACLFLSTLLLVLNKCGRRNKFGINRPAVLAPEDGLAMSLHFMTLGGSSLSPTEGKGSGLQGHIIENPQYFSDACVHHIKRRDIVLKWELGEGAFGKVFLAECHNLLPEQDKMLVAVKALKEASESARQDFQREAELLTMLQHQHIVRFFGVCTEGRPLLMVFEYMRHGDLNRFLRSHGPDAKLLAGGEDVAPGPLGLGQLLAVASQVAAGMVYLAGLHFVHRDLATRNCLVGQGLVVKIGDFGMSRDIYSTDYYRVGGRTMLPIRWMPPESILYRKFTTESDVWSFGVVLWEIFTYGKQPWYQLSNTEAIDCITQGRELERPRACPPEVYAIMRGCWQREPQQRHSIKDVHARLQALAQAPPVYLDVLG
TrkC, sequence (Q16288 32-839, species assumed): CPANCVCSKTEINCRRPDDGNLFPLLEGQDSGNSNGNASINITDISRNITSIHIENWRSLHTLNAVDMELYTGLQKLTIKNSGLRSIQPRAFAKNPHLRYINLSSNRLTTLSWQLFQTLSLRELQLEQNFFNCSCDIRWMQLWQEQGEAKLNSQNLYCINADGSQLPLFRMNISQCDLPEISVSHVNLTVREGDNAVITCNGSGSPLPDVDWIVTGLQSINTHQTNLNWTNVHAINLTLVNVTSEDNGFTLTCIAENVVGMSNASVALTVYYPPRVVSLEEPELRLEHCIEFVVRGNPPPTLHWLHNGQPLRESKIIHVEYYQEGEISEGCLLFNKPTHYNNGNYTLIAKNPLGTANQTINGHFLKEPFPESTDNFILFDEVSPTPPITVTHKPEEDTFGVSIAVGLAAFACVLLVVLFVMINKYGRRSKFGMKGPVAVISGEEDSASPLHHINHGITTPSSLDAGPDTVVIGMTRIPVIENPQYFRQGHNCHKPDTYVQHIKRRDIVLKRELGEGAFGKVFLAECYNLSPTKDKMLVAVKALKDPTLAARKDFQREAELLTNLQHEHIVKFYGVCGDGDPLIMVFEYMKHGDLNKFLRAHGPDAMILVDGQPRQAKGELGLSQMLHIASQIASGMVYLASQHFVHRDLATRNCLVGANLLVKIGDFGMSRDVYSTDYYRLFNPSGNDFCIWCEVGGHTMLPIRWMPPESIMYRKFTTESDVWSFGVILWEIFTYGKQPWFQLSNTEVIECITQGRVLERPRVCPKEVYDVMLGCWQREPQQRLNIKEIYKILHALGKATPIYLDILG

Regarding `O=C(Nc1ccccc1C(=O)NC1CCCCNC1=O)c1cc2ccccc2s1` (stereo not shown) [ANA-12, N-[2-[[(Hexahydro-2-oxo-1H-azepin-3-yl)amino]carbonyl]phenyl]-benzo[b]thiophene-2-carboxamide], on TrkC, the “effect on TrkC functions” value is “without substantially altering”. Besides, the “correct hits in odor versus odor discrimination” value in experiment [1] is over 80%. Moreover, the “effect on TrkA functions” value at TrkA is reported as “without substantially altering”. Besides, the “performance in the reversal paradigm” value in experiment [2] (ANA-12 treated prenatally cocaine-exposed mice vs prenatally cocaine-exposed mice, i.p. 1 mg/kg/day, 13 days, 1 mg/kg/day) is on record as “performed better; also recorded: significant improvement in performance”. In addition, in experiment [2] (ANA-12 treatment, summary statement), the “cognitive flexibility of treated subjects” value is recorded as “a statistically significant number of subjects tested showed improved cognitive flexibility”. Further, the “Number of trials to reach criteria (≥80%), Mean±SEM” value in experiment [2] (Cocaine+ANA12 group, i.p. 1 mg/kg/day, 13 days) is 255.0±9.6. Besides, in experiment [2] (Mann-Whitney's U test, saline vs cocaine+ANA-12, p>0.05), the “difference in number of trials to reach criteria vs saline-exposed mice” value was “no significant difference”. Also, in experiment [2] (Student's t-test, p>0.05), the “time course of reversal learning vs saline-exposed mice” value was “not significantly different”. Moreover, the “median number of trials needed to reach criteria following reversal of the odors” value in experiment [2] (cocaine+ANA-12 group) is recorded as 290. Further, the “mean rank, Mann-Whitney's U test, number of trials to reach criteria” value in experiment [2] (cocaine+ANA-12 group vs saline (U=3.5, p>0.05)) was 22.5. The “% correct responses in reversal learning, post-hoc Bonferroni comparison cocaine versus cocaine+ANA-12” value in experiment [2] (day 2 (blocks 11-20), t=3.557, df=124, p<0.01, FIG. 2A) is “significant difference”. Moreover, the “percentage of mice that reached criteria (at least 80% correct) over the two days” value in experiment [2] (prenatally cocaine-exposed mice injected with ANA-12, FIG. 2B) turned out to be 57%. The “anxiety- and depression-related behaviors” value with mice is “reduced anxiety- and depression-related behaviors”.

(Values after US10245271B2, “Treatment of impaired cognitive flexibility with TrkB receptor antagonists” (Florida State University Research Foundation, Inc., priority 2015, dated 2019).)
